The source of these data is PMC10208580 (Science Advances, 2023).

Like-named read-outs stand apart in the source and are kept apart here. Bridge positions count the residues as written; N and C are the ends. Square brackets hold non-standard residues; d marks the D form. Ends that are not written are not given here. Peptide text beside a SMILES is read from it. pT = C[C@@H](OP(=O)(O)O)[C@H](N)C(=O)O

For data set [1], the target named is T1, RyR1 (Oryctolagus cuniculus, UniProt P11716).
T1 construct: from tissue; host or cells: rabbit skeletal muscle heavy SR vesicles
T1 sequence (P11716 whole entry): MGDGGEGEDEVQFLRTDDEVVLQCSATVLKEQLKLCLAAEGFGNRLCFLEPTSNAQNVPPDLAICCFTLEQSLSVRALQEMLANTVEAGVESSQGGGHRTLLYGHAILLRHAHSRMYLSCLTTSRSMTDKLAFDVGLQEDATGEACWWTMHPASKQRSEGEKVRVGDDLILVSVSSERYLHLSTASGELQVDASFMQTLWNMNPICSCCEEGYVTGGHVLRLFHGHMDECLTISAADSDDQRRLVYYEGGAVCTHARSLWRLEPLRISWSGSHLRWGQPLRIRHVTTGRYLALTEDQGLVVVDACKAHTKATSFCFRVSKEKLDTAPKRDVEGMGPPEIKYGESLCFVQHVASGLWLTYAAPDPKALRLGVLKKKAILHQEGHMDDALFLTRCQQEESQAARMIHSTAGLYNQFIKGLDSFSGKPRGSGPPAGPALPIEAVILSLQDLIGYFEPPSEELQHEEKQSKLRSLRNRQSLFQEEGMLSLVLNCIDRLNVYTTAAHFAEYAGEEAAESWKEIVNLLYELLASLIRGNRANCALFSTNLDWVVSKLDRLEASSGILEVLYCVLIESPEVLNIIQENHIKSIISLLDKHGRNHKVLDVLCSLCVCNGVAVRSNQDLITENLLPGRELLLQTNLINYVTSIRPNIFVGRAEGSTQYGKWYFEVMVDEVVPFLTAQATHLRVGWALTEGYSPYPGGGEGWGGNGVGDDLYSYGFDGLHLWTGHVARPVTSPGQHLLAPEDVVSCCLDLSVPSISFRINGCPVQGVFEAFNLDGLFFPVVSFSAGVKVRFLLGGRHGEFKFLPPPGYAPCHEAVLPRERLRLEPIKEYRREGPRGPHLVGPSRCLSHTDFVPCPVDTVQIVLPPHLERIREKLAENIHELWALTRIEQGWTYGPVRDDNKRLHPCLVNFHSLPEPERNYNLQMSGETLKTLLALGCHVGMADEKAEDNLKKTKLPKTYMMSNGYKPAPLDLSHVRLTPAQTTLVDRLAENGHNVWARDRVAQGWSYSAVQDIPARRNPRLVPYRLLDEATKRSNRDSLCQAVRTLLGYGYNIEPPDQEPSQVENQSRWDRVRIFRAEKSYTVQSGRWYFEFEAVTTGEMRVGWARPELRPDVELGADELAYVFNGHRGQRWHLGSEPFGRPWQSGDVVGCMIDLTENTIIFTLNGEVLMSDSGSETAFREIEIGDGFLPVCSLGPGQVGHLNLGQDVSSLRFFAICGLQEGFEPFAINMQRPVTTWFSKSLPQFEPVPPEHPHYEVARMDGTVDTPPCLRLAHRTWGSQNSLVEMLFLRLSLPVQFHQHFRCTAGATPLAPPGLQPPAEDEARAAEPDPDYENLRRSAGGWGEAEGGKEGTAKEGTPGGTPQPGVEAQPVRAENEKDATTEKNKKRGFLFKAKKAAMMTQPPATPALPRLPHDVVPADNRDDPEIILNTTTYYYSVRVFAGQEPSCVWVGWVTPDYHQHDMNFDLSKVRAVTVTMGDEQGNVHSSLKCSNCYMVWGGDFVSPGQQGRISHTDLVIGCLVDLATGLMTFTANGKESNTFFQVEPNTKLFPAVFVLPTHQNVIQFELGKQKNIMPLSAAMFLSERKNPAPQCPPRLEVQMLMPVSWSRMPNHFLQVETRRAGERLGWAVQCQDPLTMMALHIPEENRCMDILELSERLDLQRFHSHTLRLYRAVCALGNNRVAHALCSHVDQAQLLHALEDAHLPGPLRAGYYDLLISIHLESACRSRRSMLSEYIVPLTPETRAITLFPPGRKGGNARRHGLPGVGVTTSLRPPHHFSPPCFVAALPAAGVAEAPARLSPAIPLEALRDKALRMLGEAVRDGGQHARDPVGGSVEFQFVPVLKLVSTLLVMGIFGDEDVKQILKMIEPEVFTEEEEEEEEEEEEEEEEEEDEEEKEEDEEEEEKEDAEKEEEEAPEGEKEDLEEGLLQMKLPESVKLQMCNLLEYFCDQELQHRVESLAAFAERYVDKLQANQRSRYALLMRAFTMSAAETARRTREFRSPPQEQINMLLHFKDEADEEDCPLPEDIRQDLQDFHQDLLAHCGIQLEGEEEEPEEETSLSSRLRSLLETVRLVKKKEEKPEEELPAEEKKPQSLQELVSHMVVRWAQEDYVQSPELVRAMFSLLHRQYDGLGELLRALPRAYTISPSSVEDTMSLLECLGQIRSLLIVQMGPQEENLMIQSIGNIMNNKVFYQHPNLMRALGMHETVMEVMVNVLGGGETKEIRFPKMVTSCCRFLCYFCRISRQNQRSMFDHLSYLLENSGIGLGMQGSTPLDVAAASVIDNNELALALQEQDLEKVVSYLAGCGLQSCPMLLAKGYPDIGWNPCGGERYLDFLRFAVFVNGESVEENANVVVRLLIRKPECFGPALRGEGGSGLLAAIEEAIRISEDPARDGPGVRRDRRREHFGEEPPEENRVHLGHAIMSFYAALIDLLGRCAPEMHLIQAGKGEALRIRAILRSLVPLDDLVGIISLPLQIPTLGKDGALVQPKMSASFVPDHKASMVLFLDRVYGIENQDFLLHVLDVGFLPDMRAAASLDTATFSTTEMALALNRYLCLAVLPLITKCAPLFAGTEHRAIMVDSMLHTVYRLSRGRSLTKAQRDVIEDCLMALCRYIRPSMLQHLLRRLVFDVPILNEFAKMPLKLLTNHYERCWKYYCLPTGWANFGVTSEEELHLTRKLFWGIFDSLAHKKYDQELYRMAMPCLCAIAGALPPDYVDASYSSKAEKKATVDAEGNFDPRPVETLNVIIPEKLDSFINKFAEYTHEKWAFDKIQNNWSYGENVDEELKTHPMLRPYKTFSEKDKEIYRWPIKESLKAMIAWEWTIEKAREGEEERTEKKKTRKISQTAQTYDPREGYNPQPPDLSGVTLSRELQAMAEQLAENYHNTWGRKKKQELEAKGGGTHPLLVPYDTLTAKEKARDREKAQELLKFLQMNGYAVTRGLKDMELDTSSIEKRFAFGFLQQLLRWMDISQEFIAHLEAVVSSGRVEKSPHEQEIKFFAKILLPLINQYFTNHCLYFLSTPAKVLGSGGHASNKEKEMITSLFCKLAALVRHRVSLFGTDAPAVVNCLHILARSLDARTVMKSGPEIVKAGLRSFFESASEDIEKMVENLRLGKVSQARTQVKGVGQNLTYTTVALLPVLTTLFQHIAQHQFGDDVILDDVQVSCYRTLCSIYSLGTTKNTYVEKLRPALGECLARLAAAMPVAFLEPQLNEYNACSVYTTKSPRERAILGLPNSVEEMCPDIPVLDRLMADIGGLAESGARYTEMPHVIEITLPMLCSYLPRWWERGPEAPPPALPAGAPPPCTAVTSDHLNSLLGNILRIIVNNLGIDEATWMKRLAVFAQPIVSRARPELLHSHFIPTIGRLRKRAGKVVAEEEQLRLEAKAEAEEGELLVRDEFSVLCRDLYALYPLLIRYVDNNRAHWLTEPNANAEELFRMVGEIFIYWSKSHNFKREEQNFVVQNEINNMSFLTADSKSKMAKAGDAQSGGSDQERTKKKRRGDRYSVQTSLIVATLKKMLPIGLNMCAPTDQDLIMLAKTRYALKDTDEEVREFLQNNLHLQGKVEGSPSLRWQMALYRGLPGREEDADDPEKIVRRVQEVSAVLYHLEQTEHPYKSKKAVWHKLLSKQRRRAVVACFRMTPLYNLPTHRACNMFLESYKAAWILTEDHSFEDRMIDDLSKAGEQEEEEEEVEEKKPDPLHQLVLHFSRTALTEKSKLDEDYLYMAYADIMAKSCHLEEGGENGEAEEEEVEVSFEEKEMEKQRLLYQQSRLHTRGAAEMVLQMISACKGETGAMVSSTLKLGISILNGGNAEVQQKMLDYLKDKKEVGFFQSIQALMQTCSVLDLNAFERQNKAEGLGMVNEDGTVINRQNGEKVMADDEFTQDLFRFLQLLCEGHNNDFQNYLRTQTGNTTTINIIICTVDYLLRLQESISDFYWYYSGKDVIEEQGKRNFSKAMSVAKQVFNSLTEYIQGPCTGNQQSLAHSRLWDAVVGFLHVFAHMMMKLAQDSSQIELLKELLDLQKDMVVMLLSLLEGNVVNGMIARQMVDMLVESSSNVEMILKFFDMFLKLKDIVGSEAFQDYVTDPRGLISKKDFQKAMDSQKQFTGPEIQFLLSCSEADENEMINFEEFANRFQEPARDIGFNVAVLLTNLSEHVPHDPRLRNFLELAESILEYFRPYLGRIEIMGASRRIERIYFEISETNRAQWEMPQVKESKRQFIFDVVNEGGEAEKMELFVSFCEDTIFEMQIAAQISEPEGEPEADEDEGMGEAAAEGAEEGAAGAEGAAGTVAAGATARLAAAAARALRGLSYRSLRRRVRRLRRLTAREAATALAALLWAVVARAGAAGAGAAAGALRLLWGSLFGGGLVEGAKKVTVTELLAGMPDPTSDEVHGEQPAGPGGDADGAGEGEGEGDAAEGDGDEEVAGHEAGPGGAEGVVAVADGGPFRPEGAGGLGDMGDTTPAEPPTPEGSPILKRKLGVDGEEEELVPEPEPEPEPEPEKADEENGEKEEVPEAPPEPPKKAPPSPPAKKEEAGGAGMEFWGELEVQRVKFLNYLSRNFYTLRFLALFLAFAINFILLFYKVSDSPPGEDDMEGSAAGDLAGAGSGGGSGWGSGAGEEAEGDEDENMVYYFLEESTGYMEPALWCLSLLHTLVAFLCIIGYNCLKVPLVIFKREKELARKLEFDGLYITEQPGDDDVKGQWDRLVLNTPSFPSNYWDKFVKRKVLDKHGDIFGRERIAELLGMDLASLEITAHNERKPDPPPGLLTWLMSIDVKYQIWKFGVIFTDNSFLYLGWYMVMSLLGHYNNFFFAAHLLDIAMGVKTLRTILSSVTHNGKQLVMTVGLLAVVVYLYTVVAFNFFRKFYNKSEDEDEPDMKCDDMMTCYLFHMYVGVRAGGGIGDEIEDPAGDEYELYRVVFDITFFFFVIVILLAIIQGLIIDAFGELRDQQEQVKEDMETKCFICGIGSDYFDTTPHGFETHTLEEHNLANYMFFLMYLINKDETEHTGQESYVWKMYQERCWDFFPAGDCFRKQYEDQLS
As to the kind of experiment: [3H]ryanodine binding to skeletal muscle heavy SR vesicles. The class given is biochemical, rabbit. The settings on record: SEM.

Data set [2] addresses rabbit RyR1 (Ryanodine Receptor 1), purified from skeletal muscle (rabbit) (UniProt P11716).
Data set [3] has as its system RyR1. The note with it: cited from earlier work. An excerpt:
The detailed binding interface between IpCa and RyR1 is shown in Fig. 3, and putative interacting pairs of residues are shown in table S1. IpCa enters the vestibule of the channel and binds deep at the cytosolic side, adjacent to the transmembrane region. All RyR1 residues involved in binding are located in the cytosolic extensions of the inner S6 helices (S6ext) that line the permeation pathway. Equivalent residues of all four RyR1 subunits make different interactions with IpCa. The most extensive interface includes the side of IpCa that contains the 22–30 loop. It mostly consists of various ... || The structure is also in agreement with previous mutagenesis studies of calcins. For example, Arg^23 is conserved in all calcins and forms a likely salt bridge with RyR1 residue Asp^4945. […] Another study found a general importance of multiple charged IpCa residues to form a subconductance state in RyR1, with the largest effects found for substitutions in the 22–30 loop ([20]), which forms the most extensive interactions with RyR1. Thus, the structure appears to be in general agreement with known potencies of natura ... || A third tunnel with a smaller radius (~1.8 Å) can be found at the lateral opening near Arg^24 (“exit 3,” fig. S10D). The narrower radius, along with the presence of three positively charged residues at the constriction point, likely provides a sizeable energetic barrier. Thus, on the basis of minimum radius and electrostatic surface potential, exit 1 may form the most likely exit pathway for Ca^2+ ions.

In data set [4] the target is T2, mouse cAMP PKA catalytic subunit (PKAc, α isoform) (Mus musculus, UniProt P05132).
T2 construct: His tag (inferred from HisTrap purification) (cleaved yes); made in house; host or cells: E. coli Rosetta (DE3) pLysI
As to the kind of experiment: ADP-Glo kinase assay, Michaelis-Menten kinetics of peptide phosphorylation. It is filed as biochemical. The note with it: peptide as PKA substrate, 25 nM PKAc, 1 mM ATP, 6 repeats. As for the experimental part: (§1) PKAc was concentrated to 500 μM, aliquoted, and stored in kinase buffer containing 20 mM Hepes (pH 7.4), 150 mM KCl, 4 mM TCEP, 5 mM MgCl2, and 30% glycerol and stored at −70°C in 0.5-ml tubes prior for use in kinase assays. All ADP-Glo Max reagents (Promega) were thawed and brought to room temperature before use. Each 0.5-ml PKAc tube was thawed and diluted to 0.5 μM in the kinase buffer without the glycerol. Kemptide and IpCa substrates were diluted to 1 mM in kinase buffer (without glycerol) from 10 mM stock made from lyophilized powder. Using a twofold dilution series, substrate concentrations ranged from 512 to 0.5 μM. In addition, a reaction with no substrate was added for a total of 12 reactions using a 20-μl reaction volume. One microliter of ATP (from the ADP-Glo Max kit) was used to reach a final concentration of 1 mM ATP in the reaction volume. Reaction was started by adding 1 μl of PKAc to reach 25 nM for each reaction. All reactions were carried out at room temperature for 30 to 60 min. Duplicates of each reaction tube were plated on a Corning 384-well solid white polystyrene microplates (Thermo Fisher Scientific) and used for downstream detection and luminescence readings. The average values of each duplicate reaction were used as a single replicate. Thus, for the total of six replicates, 12 reactions were used. Readings are based on relative luminescence units, which are converted into moles of ATP hydrolyzed using an adenosine diphosphate–ATP standard curve according to manufacturer’s protocol (Promega). Each standard curve was run in duplicate where the average was used to calculate moles of ATP hydrolyzed in each kinase reaction. Luminescence readings were recorded from the microplate wells using a PerkinElmer Victor X4.
(§2) A nonlinear regression Michaelis-Menten kinetics fitting function was used in GraphPad Prism 8.0 to calculate KM,Vmax, and Kcat values for the PKA-IpCa kinase assays. SEMs are reported for each data point as calculated in Prism. Figures and graphs were generated using PyMOL, ChimeraX, and Prism 8.0 unless otherwise noted. [^3H] Ryanodine binding data were fitted using nonlinear regression analysis in Origin 2018b software (Origin Lab). Hill’s equation was used to determine Bmax (maximum specific binding) and Kd ([…]). Statistical significance was determined at P < 0.05.
In general terms: ADP-Glo turns the ADP formed in a reaction into a luminescent signal.

Data set [5] relates to CC(C)C[C@@H]1NC(=O)[C@H](Cc2c[nH]cn2)NC(=O)[C@@H]2CCCN2C(=O)[C@H](CC(C)C)NC(=O)[C@@H](NC(=O)[C@H](CC(=O)O)NC(=O)CN)CSSC[C@@H]2NC(=O)[C@@H]3CSSC[C@@H](C(=O)N[C@@H](CCCNC(=N)N)C(=O)O)NC(=O)[C@H](CCCNC(=N)N)NC(=O)[C@H](CCCCN)NC(=O)[C@H](CCC(=O)O)NC(=O)[C@H](C)NC(=O)[C@H](CC(N)=O)NC(=O)[C@H]([C@@H](C)O)NC(=O)CNC(=O)[C@H](CCCNC(=N)N)NC(=O)[C@H](CCCNC(=N)N)NC(=O)[C@H](CCCCN)NC(=O)[C@H](CSSC[C@H](NC(=O)[C@H](CCCNC(=N)N)NC(=O)[C@H](CCCCN)NC1=O)C(=O)N[C@@H](CCCCN)C(=O)N[C@@H](C)C(=O)N[C@@H](CC(=O)O)C(=O)N[C@@H](CC(N)=O)C(=O)N[C@@H](CC(=O)O)C(=O)N3)NC(=O)[C@H](CCCCN)NC(=O)[C@H](CCCCN)NC(=O)CNC2=O. Described as above. It is filed as biochemical, mouse. The note with it: other: peptide as PKA substrate; 25 nM PKAc, 1 mM ATP, substrate 0.5-512 µM, room temperature 30-60 min, luminescence; 6 repeats; pH 7.4. As for the experimental part:
as §1, §2

Chain of rabbit RyR1 (Ryanodine Receptor 1), purified from skeletal muscle (rabbit) (P11716 whole entry): as above

On RyR1 [1], `CC(C)C[C@@H]1NC(=O)[C@H](Cc2c[nH]cn2)NC(=O)[C@@H]2CCCN2C(=O)[C@H](CC(C)C)NC(=O)[C@@H](NC(=O)[C@H](CC(=O)O)NC(=O)CN)CSSC[C@@H]2NC(=O)[C@@H]3CSSC[C@@H](C(=O)N[C@@H](CCCNC(=N)N)C(=O)O)NC(=O)[C@H](CCCNC(=N)N)NC(=O)[C@H](CCCCN)NC(=O)[C@H](CCC(=O)O)NC(=O)[C@H](C)NC(=O)[C@H](CC(N)=O)NC(=O)[C@H]([C@@H](C)O)NC(=O)CNC(=O)[C@H](CCCNC(=N)N)NC(=O)[C@H](CCCNC(=N)N)NC(=O)[C@H](CCCCN)NC(=O)[C@H](CSSC[C@H](NC(=O)[C@H](CCCNC(=N)N)NC(=O)[C@H](CCCCN)NC1=O)C(=O)N[C@@H](CCCCN)C(=O)N[C@@H](C)C(=O)N[C@@H](CC(=O)O)C(=O)N[C@@H](CC(N)=O)C(=O)N[C@@H](CC(=O)O)C(=O)N3)NC(=O)[C@H](CCCCN)NC(=O)[C@H](CCCCN)NC(=O)CNC2=O` [IpCa, Imperacalcin] (H-GDCLPHLKRCKADNDCCGKKCKRRGTNAEKRCR-OH; disulfide 3-17, 10-21, 16-32) came in with an EC50 of 6 ± 2 nM.
On to `CC(C)C[C@@H]1NC(=O)[C@H](Cc2c[nH]cn2)NC(=O)[C@@H]2CCCN2C(=O)[C@H](CC(C)C)NC(=O)[C@@H](NC(=O)[C@H](CC(=O)O)NC(=O)CN)CSSC[C@@H]2NC(=O)[C@@H]3CSSC[C@@H](C(=O)N[C@@H](CCCNC(=N)N)C(=O)O)NC(=O)[C@H](CCCNC(=N)N)NC(=O)[C@H](CCCCN)NC(=O)[C@H](CCC(=O)O)NC(=O)[C@H](C)NC(=O)[C@H](CC(N)=O)NC(=O)[C@H]([C@@H](C)OP(=O)(O)O)NC(=O)CNC(=O)[C@H](CCCNC(=N)N)NC(=O)[C@H](CCCNC(=N)N)NC(=O)[C@H](CCCCN)NC(=O)[C@H](CSSC[C@H](NC(=O)[C@H](CCCNC(=N)N)NC(=O)[C@H](CCCCN)NC1=O)C(=O)N[C@@H](CCCCN)C(=O)N[C@@H](C)C(=O)N[C@@H](CC(=O)O)C(=O)N[C@@H](CC(N)=O)C(=O)N[C@@H](CC(=O)O)C(=O)N3)NC(=O)[C@H](CCCCN)NC(=O)[C@H](CCCCN)NC(=O)CNC2=O` [IpCa-pT26] (H-GDCLPHLKRCKADNDCCGKKCKRRG[pT]NAEKRCR-OH; disulfide 3-17, 10-21, 16-32), for which the EC50 on RyR1 [1] (skeletal muscle heavy SR vesicles, mean ± SEM for n = 3 separate experiments, read-out: Median effective concentration for stimulation of [3H]ryanodine binding) is 42 ± 10 nM.
For “Imperacalcin (from UniProt P59868 1-33) (peptide)”, the [3H] ryanodine binding to skeletal muscle heavy SR vesicles against IpCa-WT concentration; median effective concentration in data set [2] was determined as 6 nM.
Take “IpCa R23E: IpCa with the R23E mutation, from previous mutagenesis study (GDCLPHLKRCKADNDCCGKKCKERGTNAEKRCR; ends and bridges not checked; cysteine pairing not given here; UniProt P59868 1-33, looked up, variant R23E)”: the “Effect of mutation on potency” value in the data set on RyR1 [3] is reported as “drastically reduce potency”.
Take LRRASLG [Kemptide]: in data set [4] (room temperature), the maximal velocity (Vmax) (commonly the top rate of the reaction or transport when substrate is in excess) was 8.34 ± 0.40 µmol/min/mg and the kcat – broadly, the maximal rate divided by the concentration of active sites – came out at 4.62 ± 0.22 s⁻¹. In data set [4] (substrate 0.5-512 µM, room temperature 30-60 min, luminescence), the Km – broadly, the concentration of substrate that gives half-maximal velocity – is 10.3 ± 2.16 µM.
For the compound “mouse cAMP PKA catalytic subunit (PKAc, α isoform) (Mus musculus)”, in data set [5], the Km is reported as 22.0 ± 3.40 µM, the Vmax was 20.2 ± 0.93 µmol/min/mg, the kcat came to 11.2 ± 0.518 s⁻¹ and the kcat/Km (commonly the turnover number divided by the Michaelis constant) was 508000 M⁻¹ s⁻¹.
As to “opicalcin2: calcin differing from opicalcin1 only by Ala26 instead of Thr26 (GDCLPHLKRCKENNDCCSKKCKRRGANPEKRCR; ends and bridges not checked; cysteine pairing not given here; UniProt P60253 34-66, looked up)”, the “Apparent affinity / potency” value in the data set on RyR1 [3] is on record as “can still bind with high potency”. The “Difference in potency between opicalcin1 and opicalcin2” value in the data set with RyR1 [3] (opicalcin2 less potent, fig. S5, ref Xiao et al (2016)) is ~ 10 fold.
